Data as given in PubChem BioAssay AID179 (DTP/NCI, 2004).
Active and inactive are the calls of the source.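 The calls were made as follows: active = compounds giving half or more protection of infected cells from virus-caused growth loss, again on retest; inactive = the rest.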

Test system: CEM cells HIV-1 protection, formazan growth assay
Experiment: NCI AIDS Antiviral Assay
Conditions: for IC50: measured here: growth of uninfected CEM cells
How it was run: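 Soluble formazan readout of cell growth; CEM cells ± HIV-1; 5 drug concs. ≥50% protection → retest; ≥50% again = moderately active; reproducible 100% = confirmed active.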

SMILES	EC50	IC50	outcome
Nc1cc(F)c2cccnc2c1O	> 200 µM	11.7 µM	–
CCOc1ccccc1NC(=O)C(=O)C(c1ccccc1)S(=O)(=O)Cc1ccccc1 (stereo not given)	> 200 µM	120 µM	–
N#Cc1nc(Nc2ccc(Cl)cc2)sc1N	> 525 µM	9.77 µM	–
CC(=O)NNc1nc(C)c(C(/C=C/c2ccc(Cl)cc2)=N/NC(=O)C[N+](C)(C)C)s1	> 14.8 µM	> 14.8 µM	–
CC#N.CC#N.COC(=O)[C@@H]1CN(C(C)=O)C(=O)[N-]1.COC(=O)[C@@H]1CN(C(C)=O)C(=O)[N-]1.COC(=O)[C@@H]1CN(C(C)=O)C(=O)[N-]1.COC(=O)[C@@H]1CN(C(C)=O)C(=O)[N-]1.[Rh+2].[Rh+2]	> 200 µM	> 200 µM	–
CC(c1ccccc1)N1OC1(c1ccccc1)c1ccccc1 (stereo not given)	> 105 µM	14.5 µM	–
[CH3][Ge]([CH3])([CH2]CC#N)[S]c1ccccc1	> 200 µM	20 µM	–
Cc1cc(N2CCCC2)c([N+](=O)[O-])cc1[N+](=O)[O-]	> 200 µM	> 200 µM	–
C/C(=N\N=C(N)N)c1ccccc1	–	–	inactive
CCCC1C(C#N)(C#N)C1(C#N)C#N	> 200 µM	2.69 µM	–
O=[N+]([O-])c1ccc(CCc2ccc([N+](=O)[O-])cc2S(=O)(=O)O)c(S(=O)(=O)O)c1	–	–	inactive
Nc1c(S(=O)(=O)O)cc(Nc2ccc(S(=O)(=O)O)c(Nc3nc(Cl)nc(Cl)n3)c2)c2c1C(=O)c1ccccc1C2=O	> 200 µM	> 200 µM	–
O=C(Nc1ccc(/C=C/c2ccc(NC(=O)c3ccc4cccnc4c3O)cc2S(=O)(=O)O)c(S(=O)(=O)O)c1)c1ccc2cccnc2c1O	> 100 µM	60.3 µM	–
CC1(C)OC2C(=O)O[C@H](CO)C2O1 (stereo not given in full)	> 200 µM	> 200 µM	–
CC(C)(C)c1cc2c(c(C(C)(C)C)c1)OC(C1Nc3cc(C(C)(C)C)cc(C(C)(C)C)c3O1)N2 (stereo not given)	> 100 µM	21.4 µM	–
Cc1cc(C)c(/C=N/NS(=O)(=O)c2ccccc2)c(C)c1	–	–	inactive
COc1ccc(CC2c3c(cc(OC)c(OC)c3OC)CCN2C)cc1OC (stereo not given)	> 589 µM	158 µM	–
Cc1ccc([P+](Cc2ccccc2)(c2ccc(C)cc2)c2ccc(C)cc2)cc1	> 200 µM	0.851 µM	–
CCOC(=O)NC(=O)c1c[nH]c(=O)[nH]c1=O	> 1100 µM	> 1100 µM	–
CNC(=O)N(CCCCC(NC(C)=O)C(=O)NCc1ccccc1)Cc1ccccc1 (stereo not given)	> 589 µM	> 589 µM	–

SMILES	EC50	IC50	outcome
Cn1c(=O)c(C(=O)NC(=O)NCCCCCOC(=O)CCCCCCCCCCC(=O)OCCCCCNC(=O)NC(=O)c2cn(Cc3ccccc3)c(=O)n(C)c2=O)cn(Cc2ccccc2)c1=O	> 7.41 µM	> 7.41 µM	–
c1ccc2cc3c(NC4=NCCO4)cccc3cc2c1	> 200 µM	64.6 µM	–
CN(C)CCN(C)P12(Oc3ccccc3O1)Oc1c(Cl)c(Cl)c(Cl)c(Cl)c1O2	> 43.7 µM	24.5 µM	–
COc1ccc(/C(C)=N/NC(=O)CC(=O)N(C(=O)c2ccccc2)c2ccc(C)cc2)cc1	> 16.2 µM	> 16.2 µM	–
CCCCNC(=S)N/N=C/c1cccc(C)n1	> 200 µM	12 µM	–
c1ccc(C(NC2=NCCO2)C2CC2)cc1 (stereo not given)	> 200 µM	45.7 µM	–
CC(NC(=O)OCC[P+](c1ccccc1)(c1ccccc1)c1ccccc1)C(=O)O (stereo not given)	> 200 µM	5.89 µM	–
C=C1C(=O)OC2/C=C(/CO)C3(O)CC(O)C(C)(CC(OC(=O)/C(C)=C/C)C12)O3 (stereo not given)	> 631 µM	1.17 µM	–
COC1/C=C/OC2(C)Oc3c(C)c(O)c4c(O)c(c(/C=N/N=C(\N)N[N+](=O)[O-])c(O)c4c3C2=O)NC(=O)C(C)=C/C=C/C(C)C(O)C(C)C(O)C(C)C(OC(C)=O)C1C (stereo not given)	–	–	inactive
[O-]c1on[n+]2c1CCCC2	–	–	inactive
C=CCNC(=O)/C=C\C(=O)O	> 1620 µM	> 1620 µM	–
Cc1nonc1C(=O)NN	> 631 µM	> 631 µM	–
O=c1ccn(C2OC(CO)CC2F)c(=O)[nH]1 (stereo not given)	> 676 µM	> 676 µM	–
Cc1ccc(/C=N\NC(=O)c2ccncc2)s1	> 200 µM	117 µM	–
CC1=CC23C(COC(=O)C24CO4)C(C(=O)O)=CC3C1C (stereo not given) (tested in a mixture with another compound)	> 200 µM	47.9 µM	–
O=Cc1ccc2c(c1)CC1(C2)Cc2ccc(C=O)cc2C1	> 200 µM	4.79 µM	–
O=c1[nH]nc(-c2ccccc2)n1/N=C/c1c(O)ccc2ccccc12	> 200 µM	112 µM	–
Cc1cc(N=Nc2ccc(NC(=O)c3ccc(NC(=O)c4ccccc4)cc3)c3ccc(S(=O)(=O)O)cc23)ccc1N=Nc1ccc2c(O)cc(S(=O)(=O)O)cc2c1	> 50.1 µM	> 50.1 µM	–
CCCCCCCCCCN=C(N)CSSCC(N)=NCCCCCCCCCC	> 200 µM	16.6 µM	–
COC(=O)c1cc2c(cc1CC1Cc3cc4c(cc3C1)CCC4)CCC2	> 200 µM	> 200 µM	–
